# Laboratory results taken from patent US11518742B2 (priority 2020, dated 2022).
# Like-named read-outs stand apart in the source and are kept apart here.
# Columns and labels:
# [1] = Controlled cooling crystallisation: solubility in minimal solvent at 50 °C; assay type: physicochemical
# Method: (detailed in the Table below). The solutions were clarified through a 0.45 μm Teflon syringe filter into pre-heated crystallisation tubes and cooled from 50° C. to −10° C. over 60 hours (1° C. Hr-1 cooling rate) and held at −10° C. for 50 hours (no agitation).
# Solutions were clarified into crystallisation tubes at 50° C. and were cooled to −10° C. at a rate of 10° C.·hr-1, then equilibrated at −10° C. for 12 hours, then agitated at −10° C. at 400 rpm for 30 minutes which afforded a mobile suspension for all samples except Sample I which remained a solution. Further equilibration with agitation at −10° C. at 400 rpm for 3 hours afforded a thin suspension. All samples were isolated via isolute cartridge and air dried for 5 minutes before characterisation.
# [2] = Competitive equilibration of Pattern A, B and C forms in solvents; assay type: physicochemical; conditions: suspension in 0.5 ml solvent agitated 24 hours; AB = Pattern A 15 mg + Pattern B 30 mg, AC = Pattern A 15 mg + Pattern C 30 mg; 1 IPA, 2 toluene, 3 iPrOAc, 4 MeCN, 5 MEK, 6 2-MeTHF
# Method: Solvent, 0.5 ml, was charged to crystallisation tubes as detailed in the Table below. Suspensions were agitated at 100 rpm at […] for 24 hours. Suspensions were isolated via isolute cartridge and air dried for 5 minutes and characterised by XRPD and DSC.
# [3] = tested on: Slugs (Arion lusitanicus); assay type: in vivo
# Description: The Slug Mucosal Irritation (SMI) assay was initially developed at the Laboratory of Pharmaceutical Technology (UGent) to predict the mucosal irritation potency of pharmaceutical formulations and ingredients. The test utilizes the terrestrial slug Arion lusitanicus. The body wall of the slugs is a mucosal surface composed of different layers.
# The outer single-layered columnar epithelium that contains cells with cilia, cells with micro-villi and mucus secreting cells covers the subepithelial connective tissue. Slugs that are placed on an irritating substance will produce mucus. Additionally tissue damage can be induced which results in the release of proteins and enzymes from the mucosal surface. […] A classification prediction model that distinguishes between irritation (mucus production) and tissue damage (release of proteins and enzymes) has been developed. […] A 5% shampoo dilution or artificial tears were instilled in the eye and the discomfort was scored by the participants on a 5 point scale during several time points up to 30 min after instillation. The same shampoos were tested in the SMI assay using the Stinging, Itching and Burning (SIB) protocol.
# The purpose of this assay was to assess the stinging, itching or burning potential of the test item(s) defined below. Using the objective values obtained for the mucus production the stinging, itching or burning potential of the test item(s) can be estimated by means of the prediction model that is composed of four categories (no, mild, moderate and severe).
# Test System: Slugs (Arion lusitanicus); 3 slugs per treatment group. The parental slugs of Arion lusitanicus collected in local gardens along Gent and Aalter (Belgium) are bred in the laboratory in an acclimatized room (18-20° C.). The slugs are housed in plastic containers and fed with lettuce, cucumber, carrots and commercial dog food.
# Test Design: A single study was performed.
# Slugs weighing between 3 and 6 g were isolated from the cultures two days before the start of an experiment. The body wall was inspected carefully for evidence of macroscopic injuries. […] The slugs were placed in a plastic box lined with paper towel moistened with PBS and were kept at 18-20° C. Daily the body wall of the slugs was wetted with 300 μl PBS using a micropipette.
# An overview of this can be seen in FIG. 4.
# The mucus production was expressed as % of the body weight.
# Based on the endpoint of the SMI assay the stinging, itching or burning potency of the test item(s) was estimated using a classification prediction model.
# The evaluation of the test results was based upon the total amount of mucus production during 3 repeated contact periods with the test item.
# For each slug, the mucus production was expressed in % of the body weight by dividing the weight of the mucus produced during each contact period by the body weight of the slug before the start of that contact period. The total mucus was calculated for each slug and then the mean per treatment group was calculated. The classification prediction model shown in Table 1 was used to classify the compounds.
# [4] = tested on: Slugs (Arion lusitanicus); assay: SMI assay, historical data (30-min / 60-min contact periods); assay type: in vivo; conditions: for Total MP (% body weight): treatment time 60-min; for CP1 60-min, amount of mucus produced: Table 6; for CP1 60-min, amount of mucus produced / CP1 30-min, amount of mucus produced / CP2 30-min, amount of mucus produced / Day 1 CP1 60-min, amount of mucus produced / Day 2 CP2 60-min, amount of mucus produced / Total MP: historical data; for Ranking of salts by SIB reactions: comparison of 60-min historical data with SIB protocol data; for CP1 30-min, amount of mucus produced / CP2 30-min, amount of mucus produced: Table 4 (Code 00E04); for Day 1 CP1 60-min, amount of mucus produced / Day 2 CP2 60-min, amount of mucus produced: Table 5; for Day 1 CP1 60-min, amount of mucus produced: 1% in CP1; for Day 2 CP2 60-min, amount of mucus produced: 3.5% in CP2
# [5] = Concentration 10%, treatment time 45-min (3× 15-min)
# [6] = Table 2, stinging, itching and burning
# [7] = Table 3, stinging, itching and burning
compound,measurement,setting,value
COc1ccc2[nH]cc(CCN(C)C)c2c1.O=C(O)c1ccccc1 [5MeODMT benzoate lot 20/20/150FP2],Solubility mg · ml^−1 at ° C.,"[1]; 2-Chlorotoluene, at 80 °C (suspension at 12.5 mg·ml-1 at 50 °C), cryst. tube K",12.5 at 80 mg · ml^−1
same,Solubility mg · ml^−1 at ° C.,"[1]; 4-Methyl-2-pentanone, at 50 °C, cryst. tube H, minimal solvent for clear solution",25 at 50 mg · ml^−1
same,Solubility mg · ml^−1 at ° C.,"[1]; Cumene, at 80 °C (suspension at 12.5 mg·ml-1 at 50 °C), cryst. tube I",12.5 at 80 mg · ml^−1
same,Solubility mg · ml^−1 at ° C.,"[1]; Ethyl formate, at 50 °C, cryst. tube E, minimal solvent for clear solution",40 at 50 mg · ml^−1
same,Solubility mg · ml^−1 at ° C.,"[1]; Iso-Butyl acetate, at 50 °C, cryst. tube D, minimal solvent for clear solution",12.5 at 50 mg · ml^−1
same,Solubility mg · ml^−1 at ° C.,"[1]; Iso-Propyl acetate, at 50 °C, cryst. tube C, minimal solvent for clear solution",16.7 at 50 mg · ml^−1
same,Solubility mg · ml^−1 at ° C.,"[1]; Methyl acetate, at 50 °C, cryst. tube A, minimal solvent for clear solution",33.3 at 50 mg · ml^−1
same,Solubility mg · ml^−1 at ° C.,"[1]; Methyl benzoate, at 50 °C, cryst. tube F, minimal solvent for clear solution",50 at 50 mg · ml^−1
same,Solubility mg · ml^−1 at ° C.,"[1]; Methyl propionate, at 50 °C, cryst. tube G, minimal solvent for clear solution",40 at 50 mg · ml^−1
same,Solubility mg · ml^−1 at ° C.,"[1]; Toluene, at 80 °C (suspension at 12.5 mg·ml-1 at 50 °C), cryst. tube J",12.5 at 80 mg · ml^−1
same,Solubility mg · ml^−1 at ° C.,"[1]; n-Propyl acetate, at 50 °C, cryst. tube B, minimal solvent for clear solution",20 at 50 mg · ml^−1
same,Solubility mg · ml^−1 at ° C.,"[1]; α,α,α-Trifluorotoluene, at 80 °C (suspension at 12.5 mg·ml-1 at 50 °C), cryst. tube L",12.5 at 80 mg · ml^−1
COc1ccc2[nH]cc(CCN(C)C)c2c1.O=C(O)c1ccccc1 [AB1],"Summary of solid form characterisation, DSC endotherm",[2],Endotherm at 124 °C
same,"Summary of solid form characterisation, XRPD",[2],Pattern A
COc1ccc2[nH]cc(CCN(C)C)c2c1.O=C(O)c1ccccc1 [AB2],"Summary of solid form characterisation, DSC endotherm",[2],Endotherm at 122 °C
same,"Summary of solid form characterisation, XRPD",[2],Pattern C
COc1ccc2[nH]cc(CCN(C)C)c2c1.O=C(O)c1ccccc1 [AB3],"Summary of solid form characterisation, XRPD",[2],Pattern A
COc1ccc2[nH]cc(CCN(C)C)c2c1.O=C(O)c1ccccc1 [AB4],"Summary of solid form characterisation, DSC endotherm",[2],Endotherm at 124 °C
same,"Summary of solid form characterisation, XRPD",[2],Pattern A
COc1ccc2[nH]cc(CCN(C)C)c2c1.O=C(O)c1ccccc1 [AB5],"Summary of solid form characterisation, DSC endotherm",[2],Endotherm at 124 °C
same,"Summary of solid form characterisation, XRPD",[2],Pattern A
COc1ccc2[nH]cc(CCN(C)C)c2c1.O=C(O)c1ccccc1 [AB6],"Summary of solid form characterisation, DSC endotherm",[2],Endotherm at 124 °C
same,"Summary of solid form characterisation, XRPD",[2],Pattern A
COc1ccc2[nH]cc(CCN(C)C)c2c1.O=C(O)c1ccccc1 [AC1],"Summary of solid form characterisation, DSC endotherm",[2],Endotherm at 124 °C
same,"Summary of solid form characterisation, XRPD",[2],Pattern A
COc1ccc2[nH]cc(CCN(C)C)c2c1.O=C(O)c1ccccc1 [AC2],"Summary of solid form characterisation, DSC endotherm",[2],Endotherm at 123 °C +
same,"Summary of solid form characterisation, XRPD",[2],Pattern C
COc1ccc2[nH]cc(CCN(C)C)c2c1.O=C(O)c1ccccc1 [AC4],"Summary of solid form characterisation, DSC endotherm",[2],Endotherm at 124 °C
same,"Summary of solid form characterisation, XRPD",[2],Pattern A
"O=C([O-])/C=C/C(=O)[O-].[Na+].[Na+] [Disodium fumarate, 10%, Disodium fumarate]",Total MP (% body weight),[3]; [5],13.3 % body weight
same,SIB Category,[3]; [6],Moderate (Moderate: 10% ≤ total MP < 17.5%)
same,SIB Category,[3]; [7],Moderate (Moderate: 10% ≤ total MP < 17.5%)
same,MP CP1 (%),"[3]; mucus produced, first 15-min contact period, mean ± SD, n = 3",5.0 ± 2.5%
"CC(=O)[O-].[Na+] [Sodium acetate, 10%, Sodium acetate]",SIB Category,[3]; in vivo,Moderate (key: No: total MP < 5.5%; Mild: 5.5% ≤ total MP < 10%; Moderate: 10% ≤ total MP < 17.5%; Severe: total MP ≥ 17.5%)
same,Total MP (% body weight),[3]; in vivo,11.0 % body weight
O=C([O-])c1ccccc1.[Na+] [Sodium benzoate],Total MP (% body weight),[4]; Concentration 1%,2.6 % body weight
same,Total MP (% body weight),[4]; Concentration 10%,6.9 % body weight
same,"CP1 60-min, amount of mucus produced",[4]; listed as Sodium benzoate (1%),2.6 ± 0.3
same,"CP1 60-min, amount of mucus produced",[4]; listed as Sodium benzoate (10%),6.9 ± 1.2
same,Ranking of salts by SIB reactions,[4],least irritating salt
"O=C([O-])CC(O)(CC(=O)[O-])C(=O)[O-].[Na+].[Na+].[Na+] [Sodium citrate, 10%, Sodium citrate]",Total MP (% body weight),[3]; [5],12.5 % body weight
same,SIB Category,[3]; [6],Moderate (Moderate: 10% ≤ total MP < 17.5%)
same,SIB Category,[3]; [7],Moderate (Moderate: 10% ≤ total MP < 17.5%)
O=C([O-])C(=O)[O-].[Na+].[Na+] [Sodium oxalate],Total MP (% body weight),[4]; Concentration 1%,11.2 % body weight
same,"CP1 30-min, amount of mucus produced",[4],4.5 ± 1.3
same,"CP2 30-min, amount of mucus produced",[4],6.6 ± 1.0
same,"Day 1 CP1 60-min, amount of mucus produced",[4],11.2 ± 3.9
same,"Day 2 CP2 60-min, amount of mucus produced",[4],16.0 ± 4.0
same,Ranking of salts by SIB reactions,[4],most irritating salt
"O=P([O-])(O)O.[Na+] [Sodium phosphate, 10% monobasic, Sodium phosphate monobasic]",Total MP (% body weight),[3]; [5],15.2 % body weight
same,SIB Category,[3]; [6],Moderate (Moderate: 10% ≤ total MP < 17.5%)
same,SIB Category,[3]; [7],Moderate (Moderate: 10% ≤ total MP < 17.5%)
Benzalkonium chloride [PC - 1% BAC],"CP1 30-min, amount of mucus produced",[4],13.2 ± 4.2
same,"CP2 30-min, amount of mucus produced",[4],18.6 ± 9.8
same,Total MP,"[4]; Table 4, 2 x 30-min contact periods",31.8 ± 12.6
same,Total MP,"[4]; Table 5, 2 x 60-min contact periods",31.6 ± 2.5
same,"Day 1 CP1 60-min, amount of mucus produced",[4],21.9 ± 4.8
same,"Day 2 CP2 60-min, amount of mucus produced",[4],9.7 ± 3.2
same,"CP1 60-min, amount of mucus produced",[4],15.0 ± 1.9
